Legend:
[1] = Fentom method: degradation of deoxyribose by free radicals from xanthine/xanthine oxidase, malondialdehyde measured by colorimetry; type: biochemical; settings: in relation to the control containing no free hydroxyl radical trapper
Method: We used the Fentom method. This method is based on the degradation of deoxyribose by free radicals generated by the xanthine/xanthine oxidase system. This degradation leads to the formation of malondialdehyde which is measured by colorimetry.
In this technique, the trapping of free hydroxyl radicals is translated into a decrease in the formation of malondialdehyde.
N,N′-dibenzylthiourea in solutions of concentration 20, 10 and 5% decreases the production of malondialdehyde by 65, 59 and 51% respectively in relation to the control containing no free hydroxyl radical trapper.

- decrease in the production of malondialdehyde ([1]; solution of concentration 5%): 51%
- decrease in the production of malondialdehyde ([1]; solution of concentration 10%): 59%
- decrease in the production of malondialdehyde ([1]; solution of concentration 20%): 65%
Structure (SMILES): S=C(NCc1ccccc1)NCc1ccccc1 [N,N′-dibenzylthiourea]
- toxicity (Toxicity statement): non-toxic

Source: patent US20060167104A1, “Method for extracting a novel compound from the root of a plant of the pentadiplandraceae family and use of N,N'-dibenzylthiourea as a medicine” (priority 2002, published 2006)
